The target in data set [1] is T1, Solute carrier family 22 member 6 (Rattus norvegicus, UniProt O35956).
T1 sequence (O35956 whole entry): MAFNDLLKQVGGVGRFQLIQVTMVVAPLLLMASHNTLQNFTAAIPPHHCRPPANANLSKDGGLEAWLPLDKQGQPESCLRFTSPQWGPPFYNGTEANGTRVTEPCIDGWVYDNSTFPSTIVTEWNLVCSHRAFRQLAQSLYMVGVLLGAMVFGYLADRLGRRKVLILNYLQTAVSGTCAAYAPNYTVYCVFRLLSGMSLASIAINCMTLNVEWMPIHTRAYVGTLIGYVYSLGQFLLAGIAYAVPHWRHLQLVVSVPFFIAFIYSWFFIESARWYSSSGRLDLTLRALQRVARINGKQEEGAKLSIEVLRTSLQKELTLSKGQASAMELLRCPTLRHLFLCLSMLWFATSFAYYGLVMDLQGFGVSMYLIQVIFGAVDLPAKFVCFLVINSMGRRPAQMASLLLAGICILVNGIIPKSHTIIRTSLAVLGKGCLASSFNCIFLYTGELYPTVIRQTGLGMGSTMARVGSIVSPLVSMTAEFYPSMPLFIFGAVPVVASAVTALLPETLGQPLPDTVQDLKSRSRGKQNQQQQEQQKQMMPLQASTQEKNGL
In words: TP_TRANSPORTER: uptake in Xenopus laevis oocytes. Particulars: oocyte. The class given is functional, cell-based.

For data set [2], the target named is T1, Solute carrier family 22 member 6. The data set is described as follows: TP_TRANSPORTER: inhibition of PAH uptake (PAH: 2 uM, Ethacrynic acid; 2000 uM) in Xenopus laevis oocytes. Format: functional, cell-based, Oocyte. Particulars: probe PAH (2 uM).
For data set [3] the target is unchanged. The data set is described as follows: TP_TRANSPORTER: inhibition of PAH uptake (PAH: 2 uM, Nalidixate; 2000 uM) in Xenopus laevis oocytes. The class given is functional, cell-based, Oocyte. Particulars: probe PAH (2 uM).
The target is the same in data set [4]. The data set is described as follows: TP_TRANSPORTER: inhibition of PAH uptake (PAH: 2 uM, Valproic acid; 2000 uM) in Xenopus laevis oocytes. The class given is functional, cell-based, Oocyte. Particulars: probe PAH (2 uM).

Each structure is given as a SMILES string.

As usually defined, the inhibition is the percentage by which the read-out fell short of the control. Read a high inhibition as a strong effect.

`Nc1nc2c(ncn2[C@@H]2O[C@@H]3COP(=O)(O)O[C@H]3[C@H]2O)c(=O)[nH]1`: the Activity result in data set [1] is “substrate [+]”.

Regarding `O=C(O)CCC(=O)C(=O)O` [ALPHA-KETOGLUTARIC ACID], the Activity entry in data set [1] is “substrate [+]”.

Turning to `C=C(CC)C(=O)c1ccc(OCC(=O)O)c(Cl)c1Cl` [ETHACRYNIC ACID], the inhibition at 2000 µM in data set [2] is over 85%.

For the compound `CCn1cc(C(=O)O)c(=O)c2ccc(C)nc21` [NALIDIXIC ACID], the inhibition at 2000 µM in data set [3] is over 85%.

For the compound `CC[N+](CC)(CC)CC` [TETRYLAMMONIUM], the Activity entry in data set [1] is “is not a substrate [-]”.

Take `O=c1[nH]c(=O)c2[nH]c(=O)[nH]c2[nH]1` [URIC ACID]: in data set [1], the Activity result is “substrate [+]”.

Compound `CCCC(CCC)C(=O)O` [VALPROIC ACID] had an inhibition at 2000 µM in data set [4] of over 85%.

The values are drawn from ChEMBL document CHEMBL2074345, “Expression cloning and characterization of a novel multispecific organic anion transporter” (J Biol Chem, 1997).
